Measurements as given in ChEMBL document CHEMBL1136152, “Synthesis and antioxidant efficiency of a new amphiphilic spin-trap derived from PBN and lipoic acid” (Bioorg Med Chem Lett, 2003).

Tests used:
Type in all cases: functional
[1] = In vitro half-hemolysis time at the concentration of 100 uM with LAMPBN to LGT molar ratio = 1.33/0.67
[2] = In vitro half-hemolysis time at the concentration of 200 uM with LAMPBN to LGT molar ratio = 1.33/0.67
[3] = In vitro half-hemolysis time at the concentration of 100 uM with LAMPBN to LGT molar ratio = 0.67/1.33
[4] = In vitro half-hemolysis time at the concentration of 50 uM with LAMPBN to LGT molar ratio = 0.67/1.33
[5] = In vitro half-hemolysis time at the concentration of 200 uM with LAMPBN to LGT molar ratio = 0.67/1.33
[6] = In vitro half-hemolysis time at the concentration of 50 uM with LAMPBN to LGT molar ratio = 1/1
[7] = In vitro half-hemolysis time at the concentration of 200 uM with LAMPBN to LGT molar ratio = 1/1
[8] = In vitro half-hemolysis time at the concentration of 50 uM with LAMPBN to LGT molar ratio = 1.33/0.67
[9] = In vitro half-hemolysis time at the concentration of 500 uM with LAMPBN to LGT molar ratio = 1.33/0.67
[10] = In vitro half-hemolysis time at the concentration of 500 uM with LAMPBN to LGT molar ratio = 0.67/1.33
[11] = In vitro half-hemolysis time at the concentration of 100 uM with LAMPBN to LGT molar ratio = 1/1
[12] = In vitro half-hemolysis time at the concentration of 500 uM with LAMPBN to LGT molar ratio = 1/1
[13] = In vitro half-hemolysis time at the concentration of 50 uM
[14] = In vitro half-hemolysis time at the concentration of 500 uM
[15] = In vitro half-hemolysis time at the concentration of 200 uM
[16] = In vitro half-hemolysis time at the concentration of 100 uM

Structure (SMILES) | HT50 [1] [%] | HT50 [2] [%] | HT50 [3] [%] | HT50 [4] [%] | HT50 [5] [%] | HT50 [6] [%] | HT50 [7] [%] | HT50 [8] [%] | HT50 [9] [%] | HT50 [10] [%] | HT50 [11] [%] | HT50 [12] [%] | HT50 [13] [%] | HT50 [14] [%] | HT50 [15] [%] | HT50 [16] [%]
CC(C)(C)/[N+]([O-])=C/c1ccc(CNC(=O)[C@H](O)[C@@H](O)C(O[C@@H]2O[C@@H](CO)[C@H](O)[C@H](O)[C@@H]2O)[C@H](O)CO)cc1.O=C(CCCCC1CCSS1)NCC(=O)NC(CO)(CO)CO (stereo partly specified) | 47.4 | 49.8 | 60.8 | 56.6 | 62 | 44.6 | 53.7 | 41.5 | 86.3 | 88.6 | 51.6 | 86.5 |  |  |  | 
CC(C)(COC(=O)NCCCNC(=O)CCCCC1CCSS1)/[N+]([O-])=C/c1ccc(CNC(=O)[C@H](O)[C@@H](O)[C@H](O[C@@H]2O[C@@H](CO)[C@H](O)[C@H](O)[C@@H]2O)[C@H](O)CO)cc1 (stereo partly specified) |  |  |  |  |  |  |  |  |  |  |  |  | 49 | 167 | 135 | 82.9
